This data set in a line: method code SF-AS, from DOI: 10.1139/v66-154.

Regarding `COc1cc(C=C[N+](=O)[O-])ccc1O`, the logP (commonly the decadic logarithm of the partition coefficient of the neutral form, usually between octanol and water) came out at 1.88. Consider `O=C1C=C(Cl)C(=O)c2ccccc21`, for which the logP worked out at 2.15. For `CCCCNC1=CC(=O)c2ccccc2C1=O`, the logP turned out to be 3.11. The value for `O=[N+]([O-])C=Cc1cccc(O)c1` was 2.07. In the case of `COC1=CC(=O)c2ccccc2C1=O`, the logP amounted to 1.35.

`O=[N+]([O-])/C=C/c1ccc(O)cc1` returned a logP of 2.12. `O=[N+]([O-])C=Cc1ccccc1`: the logP came to 2.11. This logP and that of the compound before are within 0.2 log units of each other.

`Cc1cc2c(cc1C)C(=O)C=CC2=O` registered a logP of 2.49.

`COC1=C(C)C(=O)c2ccccc2C1=O` registered a logP of 2.14. For `O=[N+]([O-])/C=C/c1ccccc1Cl`, the logP worked out at 2.85. Then `O=C1C(Cl)=C(Nc2ccccc2)C(=O)c2ccccc21`, with 4.22; and `CN(C)c1ccc(/C=C/[N+](=O)[O-])cc1`, with 2.67; and `O=C1C=CC(=O)c2ccccc21`, with 1.71. The compound `Cc1ccc2c(c1)C(=O)C=CC2=O` returned a logP of 2.1. Turning to `O=[N+]([O-])/C=C/c1cccc(Cl)c1`, the logP was determined as 2.57. Then `O=[N+]([O-])/C=C/c1ccccc1[N+](=O)[O-]`, with 1.8; and `CCCCSC1=C(NC(C)=O)C(=O)c2ccccc2C1=O`, with 2.07; and `COc1cccc(/C=C/[N+](=O)[O-])c1`, with 2.3. On to `O=[N+]([O-])C=Cc1cc([N+](=O)[O-])ccc1Cl`, for which the logP was determined as 2.23. The value for `O=C1C(Nc2ccccc2)=C(S(=O)(=O)c2ccccc2)C(=O)c2ccccc21` was 3.38. Then `CC1=C(O)c2ccccc2C(=O)C1=O`, with 1.2; and `O=[N+]([O-])/C=C/c1cccc([N+](=O)[O-])c1`, with 1.82.

The compound `CC(=O)NC1=C(Nc2ccccc2)C(=O)c2ccccc2C1=O` gave a logP of 1.73. This logP and that of the compound before are within 0.2 log units of each other. The value for `O=C1C=C(S(=O)(=O)c2ccccc2)C(=O)c2ccccc21` was 2.14; that for `O=C1C=C(Nc2ccccc2)C(=O)c2ccccc21` was 2.84.

In turn, `O=C1C=C(c2ccccc2)C(=O)c2ccccc21` gave a logP of 4.4.

Turning to `C/C(=C\c1ccccc1)[N+](=O)[O-]`, the logP was 2.52. The value for `CCCCNC1=C(Cl)C(=O)c2ccccc2C1=O` was 4.26; that for `CCCCSC1=CC(=O)c2ccccc2C1=O` was 3.29. In turn, `O=[N+]([O-])/C=C/c1ccc(Cl)cc1` showed a logP of 2.44. `O=[N+]([O-])/C=C/c1ccc([N+](=O)[O-])cc1` came in with a logP of 1.89. Take `CC(=O)NC1=CC(=O)c2ccccc2C1=O`: the logP turned out to be 1.29.
